From patent US20260373229A1, “TOPICALLY APPLICABLE PREPARATION FOR IMPROVING SKIN CONDITION” (priority 2022, published 2026)
Values after ≈ are worked out from the molar mass of the structure shown.

Legend:
[1] = test system: innate immune response of the skin; settings: in synergy with factors originating from the host and microbiome; cited from earlier work
C. acnes DSM1897 = assay: Growth of C. acnes DSM1897 in microtiter plates (OD600, anaerobic, 5 days); format: cell-based, Cutibacterium acnes (Propionibacterium acnes)
Protocol: The effect of the preparations according to the invention on the growth of C. acnes, S. aureus and S. epidermidis was investigated in in vitro studies.
C. acnes DSM1897 was incubated under anaerobic conditions at 37 °C. The overnight culture was diluted 1:1000 in Caso medium (casein peptone 17 g/l; soybean meal peptone 3 g/l; sodium chloride 5 g/l; glucose 2.5 g/l; dipotassium hydrogen phosphate 2.5 g/l; pH 7.3±0.2) and seeded in microtiter plates. Different concentrations of the plant extract Glycyrrhiza inflata and licochalcone A (1 μg/ml, 2 μg/ml) were added, mixed and incubated anaerobically at 37 °C for 5 days. […] The optical density (OD) was measured photometrically at a wavelength of 600 nm (OD600) to estimate the growth of the bacteria. […]
Unless otherwise stated, the quantities refer to the weight of the compound per volume of medium, e.g. 1 μg/ml means 1 μg licochalcone A in 1 ml medium. The percentage quantities of ISW1-2 refer to the weight of ISW1-2 in relation to the total weight of the respective test preparation.
C. acnes 1897 was incubated without ISW1-2 (FIG. 1 shaded) and with a non-inhibitory concentration of 0.00001% ISW1-2 (FIG. 1 black), wherein different concentrations of licochalcone A Extract (0 μg/ml=control; 1 μg/ml; 2 μg/ml) were added. Bacterial growth or inhibition is measured by the increase/reduction of turbidity in the medium (OD600). […]

S. epidermidis ATTC12228 = assay: Growth of S. epidermidis 12228 in microtiter plates (OD600, aerobic, 24 h); format: cell-based, Staphylococcus epidermidis; settings: for effect on growth of S. epidermidis (OD600): 1 μg/ml, 2 μg/ml, without ISW1-2, 24 h, FIGS. 11, 13, 15, 17
Protocol: (§1) S. aureus DSM20231 and S. epidermidis ATTC12228 were incubated under aerobic conditions at 37 °C with constant shaking. The overnight cultures were diluted 1:10000 in MHB (Müller Hinton Broth: starch 1.5 g/l; meat infusion 2.0 g/l; peptone from casein (hydrolyzed) 17.5 g/l; pH: 7.4±0.2) and seeded in microtiter plates. […] These experiments were repeated in the presence of a non-inhibitory ISW1-2 concentration (0.00002% ISW1-2). To estimate bacterial growth, the optical density (OD) was measured photometrically at a wavelength of 600 nm (OD600). Increasing values indicate bacterial growth (mean value from three independent experiments).
In further comparative studies, the influence of the combination of compounds according to the invention was also determined on skin commensal germs, such as S. epidermidis (FIGS. 11 to 18).
For this purpose, Staphylococcus epidermidis 12228 was incubated without ISW1-2 (FIGS. 11, 13, 15, 17) and with a non-inhibitory concentration of 0.00002% ISW1-2 (FIGS. 12, 14, 16, 18), wherein different concentrations of licochalcone extract; licochalcone A; licochalcone C and licochalcone E (0 μg/ml=control; 1 μg/ml; 2 μg/ml) were present. The bacterial growth over 24 h under the different conditions is shown (mean values from three independent experiments).
(§2) Bacterial growth is measured by the increase in turbidity in the medium (OD600), i.e. an increase in OD over time indicates bacterial growth.

[2] = test system: membrane potential of the bacteria
Staphylococcus aureus = assay: Minimum inhibitory concentration / antimicrobial activity against Staphylococcus aureus in vitro; format: cell-based; settings: for minimum inhibitory concentration (MIC): Staphylococcus aureus
S. aureus DSM20231 = assay: Growth of S. aureus DSM20231 in microtiter plates (OD600, aerobic, 24 h); format: cell-based, Staphylococcus aureus; settings: for synergistic effect with ISW1-2 on S. aureus growth: with 0.00002% ISW1-2, FIGS. 3 to 10
Protocol: as §1
Staphylococcus aureus DSM20231 was incubated without ISW1-2 (FIGS. 3, 5, 7, 9) and with a non-inhibitory concentration of 0.00002% ISW1-2 (FIGS. 4, 6, 8, 10), wherein different concentrations of licochalcone Extract; licochalcone A; licochalcone C and licochalcone E (0 μg/ml=control; 1 μg/ml; 2 μg/ml) were present. FIGS. 3 to 10 show the bacterial growth over 24 hours under the different conditions (mean values from three independent experiments).
as §2
FIGS. 7 and 8 show the studies with ISW1-2 and licochalcone C. Four different amounts of licochalcone C were used (0%, control; 1 μg/ml; 2 μg/ml and 4 μg/ml), alone (FIG. 7) and with 0.00002% ISW1-2 (FIG. 8).
FIGS. 9 and 10 show the studies with ISW1-2 and licochalcone E. Three different amounts of licochalcone E were used (0%, control; 1 μg/ml; 2 μg/ml), alone (FIG. 9) and with 0.00002% ISW1-2 (FIG. 10).

CC(C)C[C@H]1NC(=O)[C@H](Cc2c[nH]c3ccccc23)NC(=O)[C@@H](C(C)C)NC(=O)[C@H]2NC(SC2(C)C)[C@H](C(C)C)NC(=O)[C@@H](Cc2c[nH]c3ccccc23)NC(=O)[C@H](C(C)C)NC1=O [ISW1-2, cyclo [N-DVal-LTrp-DLeu-LVal-DTrp-LMe2Thz(LVal)-C]]
effect on innate immune response of the skin [1]: supports the innate immune response of the skin | growth inhibition of C. acnes (OD600) (C. acnes DSM1897; 0.00001% ISW1-2 alone, anaerobic, 37 °C, 5 days): non-inhibitory | growth inhibition of S. epidermidis (OD600) (S. epidermidis ATTC12228; 0.00002% ISW1-2 alone, 24 h): non-inhibitory | mechanism of action ([2]; antibacterial effect): based on proton translocation while maintaining membrane integrity | correlation of antibacterial effect with membrane potential drop ([2]; bacteria): correlates strongly with the drop of the membrane potential of the bacteria | sensitivity of skin pathogens such as Staphylococcus aureus (Staphylococcus aureus): particularly sensitive | minimum inhibitory concentration (MIC) (Staphylococcus aureus): 3.1 µg/mL (≈ 3.45 µM) | minimum inhibitory concentration (MIC) (Staphylococcus aureus; 3.1 μg/ml expressed in %): 0.00031% | growth inhibition of S. aureus (OD600) (S. aureus DSM20231; 0.00002% ISW1-2 alone, 37 °C, 24 h): non-inhibitory

C=CC(C)(C)c1cc(/C=C/C(=O)c2ccc(O)cc2)c(OC)cc1O [licochalcone A]
growth inhibition of C. acnes (OD600) (C. acnes DSM1897; pure extract or pure licochalcone A without ISW1-2, FIGS. 1 and 2): only a minor inhibitory effect | effect on growth of S. epidermidis (OD600) (S. epidermidis ATTC12228): No influence on the growth of S. epidermidis was observed

COc1c(/C=C/C(=O)c2ccc(O)cc2)ccc(O)c1CC=C(C)C [licochalcone C]
effect on growth of S. epidermidis (OD600) (S. epidermidis ATTC12228): No influence on the growth of S. epidermidis was observed | synergistic effect with ISW1-2 on S. aureus growth (S. aureus DSM20231): somewhat less synergistically with ISW1-2 than licochalcone A

C=C(C)[C@@H](C)c1cc(/C=C/C(=O)c2ccc(O)cc2)c(OC)cc1O [licochalcone E]
effect on growth of S. epidermidis (OD600) (S. epidermidis ATTC12228): No influence on the growth of S. epidermidis was observed | synergistic effect with ISW1-2 on S. aureus growth (S. aureus DSM20231): better synergistic effect with ISW1-2, similar to licochalcone A
